Each structure is given as a SMILES string. In brackets after ≈: the same amount, converted by molar mass. Where only a bound is given, the exact number is not on record here.

Assay in all cases: ≥ marks a high value that may be exact or a test limit, other limits are often not marked, values filed in µg/mL are converted to µM
Assay [1] relates to Staphylococcus aureus ATCC BAA-1556.
In assay [2] the test system is Bacillus subtilis.
For assay [3], the system named is Staphylococcus aureus ATCC 2592.
Assay [4] has as its system Candida albicans ATCC 2002.
For assay [5], the system named is Escherichia coli ATCC 25922.
For assay [6], the system named is Pseudomonas aeruginosa ATCC 9027.
Assay [7] deals with Staphylococcus aureus USA 300.
Assay [8] concerns Escherichia coli K-12.
Assay [9] deals with Staphylococcus aureus ATCC 25923.
The test system of assay [10] is Escherichia coli ML-35p.
For assay [11], the system named is Pseudomonas aeruginosa PAO1.
Assay [12] concerns Bacillus subtilis 168.

For `CC(C)C[C@H](NC(=O)[C@H](Cc1c[nH]c2ccccc12)NC(=O)[C@H](CCCN=C(N)N)NC(=O)[C@H](CC(C)C)NC(=O)[C@H](Cc1c[nH]c2ccccc12)NC(=O)[C@H](CC(C)C)NC(=O)[C@H](CC(C)C)NC(=O)[C@H](Cc1c[nH]c2ccccc12)NC(=O)[C@@H](N)Cc1c[nH]c2ccccc12)C(N)=O` [WWLLWLRWL], the MIC in assay [1] came out at 3.12 µM (≈ 4.28 µg/mL).

Consider `CC[C@H](C)[C@H](NC(=O)[C@H](CCC(N)=O)NC(=O)[C@H](CCCCN)NC(=O)[C@H](Cc1c[nH]c2ccccc12)NC(=O)[C@H](CC(C)C)NC(=O)[C@H](CCC(N)=O)NC(=O)[C@@H]1CCCN1C(=O)[C@H](CC(C)C)NC(=O)[C@H](CCCCN)NC(=O)[C@H](C)NC(=O)[C@H](CCC(=O)O)NC(=O)[C@H](CCCCN)NC(=O)[C@@H](NC(=O)[C@H](CCSC)NC(=O)[C@@H](NC(=O)[C@@H](NC(=O)[C@@H](NC(=O)[C@@H](N)CO)[C@@H](C)CC)[C@@H](C)CC)[C@@H](C)O)[C@@H](C)O)C(=O)N[C@@H](C)C(=O)N[C@H]1CSSC[C@@H](C(=O)O)NC(=O)[C@H]([C@@H](C)O)NC(=O)[C@H](CC(N)=O)NC(=O)CNC(=O)[C@H](CC(C)C)NC(=O)[C@H](CCCN=C(N)N)NC1=O` [SIITMTKEAKLPQLWKQIACRLGNTC], for which the minimal inhibitory concentration (MIC) worked out at 20.4 µM (≈ 60 µg/mL) in [2], 5.09 µM (≈ 15 µg/mL) in assay [3], 5.09 µM (≈ 15 µg/mL) in [4] and 10.2 µM (≈ 30 µg/mL) in assay [5].

`CC(C)C[C@H](NC(=O)[C@H](Cc1c[nH]c2ccccc12)NC(=O)[C@H](CC(C)C)NC(=O)[C@H](CC(C)C)NC(=O)[C@H](Cc1c[nH]c2ccccc12)NC(=O)[C@H](Cc1c[nH]c2ccccc12)NC(=O)[C@H](CC(C)C)NC(=O)[C@H](Cc1c[nH]c2ccccc12)NC(=O)[C@@H](N)Cc1c[nH]c2ccccc12)C(N)=O` [WWLWWLLWL] registered an MIC in [1] of no less than 100 µM.

Consider `CC[C@H](C)[C@H](NC(=O)CNC(=O)[C@@H]1CCCN1C(=O)CNC(=O)[C@H](CC(C)C)NC(=O)[C@H](CC(N)=O)NC(=O)[C@H](C)NC(=O)[C@H](Cc1ccccc1)NC(=O)[C@H](CC(N)=O)NC(=O)[C@H](C)NC(=O)[C@H](CCCN=C(N)N)NC(=O)[C@H](Cc1ccccc1)NC(=O)[C@H](C)NC(=O)[C@@H](NC(=O)[C@H](CCCN=C(N)N)NC(=O)[C@H](Cc1c[nH]c2ccccc12)NC(=O)[C@H](Cc1ccc(O)cc1)NC(=O)[C@H](CC(=O)O)NC(=O)[C@H](C)NC(=O)[C@H](CC(C)C)NC(=O)CN)[C@@H](C)O)C(=O)N[C@@H](CCCN=C(N)N)C(=O)N[C@H]1CSSC[C@@H](C(=O)O)NC(=O)[C@H](CCCN=C(N)N)NC(=O)[C@H](C)NC(=O)[C@H](CO)NC(=O)[C@H](CCCCN)NC1=O` [GLADYWRTAFRANFANLGPGIRCKSARC], for which the MIC is 1 µM (≈ 3.11 µg/mL) in assay [3], 6 µM (≈ 18.7 µg/mL) in assay [6], no less than 32 µM in assay [4] and 2 µM (≈ 6.23 µg/mL) in assay [5].

For `CC[C@H](C)[C@H](NC(=O)[C@H](CCCN=C(N)N)NC(=O)[C@H](CCC(N)=O)NC(=O)[C@@H](NC(=O)[C@@H](NC(=O)[C@H](CCCN=C(N)N)NC(=O)[C@H](CCCCN)NC(=O)[C@H](Cc1ccccc1)NC(=O)CN)[C@@H](C)CC)C(C)C)C(=O)N[C@@H](C)C(=O)N[C@@H](CC(=O)O)C(=O)N[C@@H](Cc1ccccc1)C(=O)N[C@@H](CC(C)C)C(=O)N[C@@H](CCCN=C(N)N)C(=O)N[C@@H](CC(N)=O)C(=O)N[C@@H](CC(C)C)C(=O)N[C@H](C(N)=O)C(C)C` [GFKRIVQRIADFLRNLV], the minimum inhibitory concentration (MIC) is 7.5 µM (≈ 15.3 µg/mL) in [7] and no less than 60 µM in assay [8].

Take `CC[C@H](C)[C@H](NC(=O)[C@H](CCCCN)NC(=O)[C@H](CC(=O)O)NC(=O)[C@H](CC(C)C)NC(=O)[C@@H](NC(=O)[C@H](CC(N)=O)NC(=O)[C@H](CCC(N)=O)NC(=O)[C@@H](NC(=O)[C@H](Cc1ccccc1)NC(=O)CNC(=O)[C@H](CCCCN)NC(=O)CNC(=O)[C@H](C)NC(=O)[C@H](CC(N)=O)NC(=O)[C@H](CCCCN)NC(=O)[C@@H](NC(=O)[C@@H](NC(=O)[C@H](CCC(=O)O)NC(=O)[C@H](Cc1c[nH]c2ccccc12)NC(=O)[C@H](CC(C)C)NC(=O)[C@@H](N)CO)[C@@H](C)O)[C@@H](C)CC)[C@@H](C)CC)[C@@H](C)CC)C(=O)N[C@@H](CCCN=C(N)N)C(=O)O` [SLWETIKNAGKGFIQNILDKIR]: the minimal inhibitory concentration (MIC) in assay [9] turned out to be 3.69 µM (≈ 9.38 µg/mL); in assay [2] it was 8.6 µM (≈ 21.9 µg/mL); in [10], 14.7 µM (≈ 37.5 µg/mL); in [4], 12.9 µM (≈ 32.7 µg/mL).

In the case of `CC[C@H](C)[C@H](NC(=O)[C@H](C)NC(=O)[C@@H]1CCCN1C(=O)[C@@H](NC(=O)[C@@H](NC(=O)[C@H](Cc1cnc[nH]1)NC(=O)[C@H](CO)NC(=O)[C@@H](NC(=O)[C@@H](NC(=O)[C@H](CO)NC(=O)CNC(=O)[C@H](CC(C)C)NC(=O)[C@H](CC(C)C)NC(=O)CNC(=O)[C@H](CC(C)C)NC(=O)[C@H](CC(C)C)NC(=O)CN)C(C)C)C(C)C)C(C)C)C(C)C)C(=O)N[C@H](C(=O)NCC(=O)N[C@@H](Cc1cnc[nH]1)C(=O)N[C@@H](Cc1ccccc1)C(N)=O)C(C)C` [GLLGLLGSVVSHVVPAIVGHF], the MIC in assay [7] was 6.2 µM (≈ 12.8 µg/mL); in assay [11], greater than 100 µM; in assay [12] it was 25 µM (≈ 51.8 µg/mL); in assay [8], no less than 100 µM.

`CC(C)C[C@H](NC(=O)[C@H](Cc1c[nH]c2ccccc12)NC(=O)[C@H](Cc1c[nH]c2ccccc12)NC(=O)[C@H](CC(C)C)NC(=O)[C@H](Cc1c[nH]c2ccccc12)NC(=O)[C@H](Cc1c[nH]c2ccccc12)NC(=O)[C@H](CCCN=C(N)N)NC(=O)[C@H](Cc1c[nH]c2ccccc12)NC(=O)[C@@H](N)Cc1c[nH]c2ccccc12)C(N)=O` [WWRWWLWWL] came in with a minimum inhibitory concentration (MIC) in [1] of 3.12 µM (≈ 4.74 µg/mL).

As to `CC[C@H](C)[C@H](NC(=O)[C@H](Cc1c[nH]c2ccccc12)NC(=O)[C@H](CCCN=C(N)N)NC(=O)[C@H](CCCN=C(N)N)NC(=O)[C@H](Cc1c[nH]c2ccccc12)NC(=O)[C@@H](N)CCCCN)C(=O)N[C@@H](CCCN=C(N)N)C(=O)N[C@@H](CC(C)C)C(=O)N[C@@H](CC(C)C)C(N)=O` [KWRRWIRLL], in assay [1], the minimal inhibitory concentration (MIC) stood at 25 µM (≈ 33.1 µg/mL). Against the preceding compound, the MIC is about 8-fold higher.

For `CC[C@H](C)[C@H](NC(=O)[C@H](CC(C)C)NC(=O)[C@H](C)NC(=O)[C@@H]1CCCN1C(=O)[C@H](CCCN=C(N)N)NC(=O)[C@@H](N)Cc1ccccc1)C(=O)N[C@H](C(=O)N[C@@H](CCCN=C(N)N)C(=O)N[C@H](C(=O)N[C@@H](CCCCN)C(=O)NCC(=O)N[C@H](C(=O)N[C@@H](CCCN=C(N)N)C(=O)N[C@@H](CC(C)C)C(=O)O)[C@@H](C)O)[C@@H](C)O)C(C)C` [FRPALIVRTKGTRL], the minimum inhibitory concentration (MIC) in assay [7] and in assay [8] was 30 µM (≈ 48.8 µg/mL) in each case.

Turning to `CC[C@H](C)[C@H](NC(=O)[C@H](CCCCN)NC(=O)[C@H](CCCN=C(N)N)NC(=O)CNC(=O)[C@H](CC(C)C)NC(=O)[C@H](CO)NC(=O)[C@H](CCCN=C(N)N)NC(=O)[C@H](CC(C)C)NC(=O)CNC(=O)CN)C(=O)N[C@@H](CC(C)C)C(=O)N[C@@H](CCCN=C(N)N)C(=O)N[C@@H](C)C(=O)N[C@@H](Cc1c[nH]c2ccccc12)C(=O)N[C@@H](CCCCN)C(=O)N[C@@H](CCCCN)C(=O)N[C@@H](Cc1ccc(O)cc1)C(=O)NCC(=O)O` [GGLRSLGRKILRAWKKYG], the minimum inhibitory concentration (MIC) in assay [12] is 8 µM (≈ 16.5 µg/mL); in assay [8] it was 2 µM (≈ 4.12 µg/mL).

On to `CC(C)C[C@H](NC(=O)[C@H](CC(C)C)NC(=O)[C@H](CC(C)C)NC(=O)[C@H](CCCCN)NC(=O)[C@H](CCCCN)NC(=O)[C@H](CC(C)C)NC(=O)[C@H](CC(C)C)NC(=O)[C@H](CC(C)C)NC(=O)[C@@H](N)CC(C)C)C(N)=O` [LLLLKKLLL], for which the MIC in [1] was no less than 100 µM.

Turning to `CC[C@H](C)[C@H](NC(=O)[C@H](CCC(N)=O)NC(=O)[C@H](CCCCN)NC(=O)CNC(=O)[C@H](CC(C)C)NC(=O)[C@H](CCC(N)=O)NC(=O)CNC(=O)[C@H](CC(C)C)NC(=O)[C@H](CCCCN)NC(=O)[C@H](C)NC(=O)[C@H](CCC(=O)O)NC(=O)[C@H](CCCCN)NC(=O)[C@@H](NC(=O)CNC(=O)[C@@H](NC(=O)[C@@H](NC(=O)[C@@H](NC(=O)[C@@H](N)CO)[C@@H](C)CC)[C@@H](C)CC)[C@@H](C)O)[C@@H](C)O)C(=O)N[C@@H](C)C(=O)N[C@H]1CSSC[C@@H](C(=O)O)NC(=O)[C@H]([C@@H](C)O)NC(=O)[C@H](CC(N)=O)NC(=O)CNC(=O)[C@H](CC(C)C)NC(=O)[C@H](CCCN=C(N)N)NC1=O` [SIITGTKEAKLGQLGKQIACRLGNTC], the MIC in assay [2] was no less than 44.4 µM; in [3], 5.55 µM (≈ 15 µg/mL); in assay [4], 11.1 µM (≈ 30 µg/mL); in [5], 44.4 µM (≈ 120 µg/mL).

`CC(C)C[C@H](NC(=O)[C@H](CC(C)C)NC(=O)[C@H](CCCCN)NC(=O)[C@H](CC(C)C)NC(=O)[C@H](CC(C)C)NC(=O)[C@H](CC(C)C)NC(=O)[C@H](CC(C)C)NC(=O)[C@H](CCCCN)NC(=O)[C@@H](N)CC(C)C)C(N)=O` [LKLLLLKLL] came in with an MIC in [1] of no less than 100 µM.

As for `CC(C)C[C@H](NC(=O)[C@H](CC(C)C)NC(=O)[C@H](CC(C)C)NC(=O)[C@H](CC(C)C)NC(=O)[C@H](CCCCN)NC(=O)[C@H](CC(C)C)NC(=O)[C@H](CCCCN)NC(=O)[C@H](CC(C)C)NC(=O)[C@@H](N)CC(C)C)C(N)=O` [LLKLKLLLL], in assay [1], the MIC was no less than 100 µM.

On to `CC(C)C[C@H](NC(=O)[C@H](Cc1c[nH]c2ccccc12)NC(=O)[C@H](Cc1c[nH]c2ccccc12)NC(=O)[C@H](CC(C)C)NC(=O)[C@H](CCCN=C(N)N)NC(=O)[C@H](Cc1c[nH]c2ccccc12)NC(=O)[C@@H](N)CC(C)C)C(=O)N[C@@H](Cc1c[nH]c2ccccc12)C(=O)N[C@@H](Cc1c[nH]c2ccccc12)C(N)=O` [LWRLWWLWW], for which the minimum inhibitory concentration (MIC) in [1] worked out at 3.12 µM (≈ 4.51 µg/mL). In other words, the single-digit micromolar range.

Values taken from DBAASP.
